In patent publication US11331271B2, “Buccal, sublingual and intranasal delivery of fospropofol” (The Johns Hopkins University, priority 2016, dated 2022):

Assays:
[1] = test system: healthy volunteers; assay: Human Study 2: treatment-emergent adverse events (TEAE), safety, Modified OAA/S, DSST, BIS; type: in vivo; conditions: for DSST mean change from baseline: 1 h post-treatment
Method: In human study 1, fospropofol disodium was formulated as a sterile aqueous solution at a concentration of 20 mg/mL. Each vial provided contained 20 mL of solution, suitable for intravenous injection. Fospropofol was administered as a single dose of 400 mg orally, directly into the duodenum by gastroscopy or intravenously over 10 min. In human study 2, fospropofol disodium in capsules (200 mg) or matching placebo was administered orally.
A second single ascending dose study was subsequently performed to assess the safety, tolerability, and pharmacokinetics of oral administration of fospropofol as a capsule. This was a double-blind, randomized, crossover, placebo-controlled, single ascending dose study. Ten healthy volunteers were enrolled, 6 males and 4 females between 18 and 45 years of age inclusive with a body mass index between 18 and 28 kg/m^2. Each subject received four ascending oral doses of fospropofol disodium (200, 600, 1,000 and 1,200 mg) and one of placebo. Placebo was administered randomly, in one of the five periods. Subjects stayed in the clinical research unit over 3 days per treatment for five consecutive treatments. Between treatments, there were wash-out periods of at least 6 days, during which interim safety evaluations were made to assess the safety of the subsequent higher doses. Fopropofol disodium in capsules (200 mg) or matching placebo was administered orally. Pharmacokinetic parameters, safety and pharmacodynamic effect were assessed in a manner similar to that in Study 1 described above. In addition, the digit symbol substitution test (DSST) and BIS Index (a commercially available EEG derived measure of anesthesia and sedation, Coviden, Mansfield, Mass., USA) were added as additional pharmacodynamics measures.

[2] = Intranasal fospropofol in rats: plasma and brain levels; type: in vivo, rat
[3] = test system: Caco-2 cell monolayers; conditions: cited from earlier work
[4] = 200 mg oral, listed as Fospropofol
[5] = 600 mg oral, listed as Fospropofol
[6] = 1000 mg oral, listed as Fospropofol
[7] = 1200 mg oral, listed as Fospropofol

CC(C)c1cccc(C(C)C)c1OCOP(=O)(O)O [fospropofol]
(90%): TEAE TOTAL, subjects (%) [1, 5] | TEAE NERVOUS SYSTEM DISORDERS, subjects (%) ([1]; 1200 mg oral) | TEAE TOTAL, subjects (%) [1, 7]
90%: TEAE TOTAL, subjects (%) ([1]; 600 mg oral) | TEAE TOTAL, subjects (%) ([1]; 1200 mg oral)
(40%): TEAE GENERAL DISORDERS AND ADMINISTRATION SITE CONDITIONS, subjects (%) ([1]; 600 mg oral) | TEAE GASTROINTESTINAL DISORDERS, subjects (%) ([1]; 1000 mg oral) | TEAE somnolence, subjects (%) [1, 6]
70-98%: BIS score range ([1]; 1,000 mg) | BIS score range ([1]; 1,200 mg)
appreciable plasma concentrations: fospropofol in plasma after intranasal fospropofol [2]
No subject experienced a SAE: serious adverse events ([1]; 200-1,200 mg oral)
(10%): TEAE EYE DISORDERS, subjects (%) ([1]; 200 mg oral) | TEAE GASTROINTESTINAL DISORDERS, subjects (%) ([1]; 200 mg oral) | TEAE GENERAL DISORDERS AND ADMINISTRATION SITE CONDITIONS, subjects (%) ([1]; 200 mg oral) | TEAE INFECTIONS AND INFESTATIONS, subjects (%) ([1]; 200 mg oral) | TEAE MUSCULOSKELETAL AND CONNECTIVE DISORDERS, subjects (%) ([1]; 200 mg oral) | TEAE RESPIRATORY THORACIC AND MEDIASTINAL DISORDERS, subjects (%) ([1]; 200 mg oral) | TEAE VASCULAR DISORDERS, subjects (%) ([1]; 200 mg oral) | TEAE abdominal pain, subjects (%) ([1]; 200 mg oral) | TEAE eye irritation, subjects (%) ([1]; 200 mg oral) | TEAE feeling hot, subjects (%) ([1]; 200 mg oral) | TEAE nausea, subjects (%) ([1]; 200 mg oral) | TEAE pharyngolaryngeal pain, subjects (%) ([1]; 200 mg oral) | TEAE rhinitis, subjects (%) ([1]; 200 mg oral) | TEAE sensation of heaviness, subjects (%) ([1]; 200 mg oral) | TEAE vein pain, subjects (%) ([1]; 200 mg oral) | TEAE somnolence, subjects (%) [1, 4] | TEAE PSYCHIATRIC DISORDERS, subjects (%) ([1]; 600 mg oral) | TEAE REPRODUCTIVE SYSTEM AND BREAST DISORDERS, subjects (%) ([1]; 600 mg oral) | TEAE RESPIRATORY THORACIC AND MEDIASTINAL DISORDERS, subjects (%) ([1]; 600 mg oral) | TEAE VASCULAR DISORDERS, subjects (%) ([1]; 600 mg oral) | TEAE abdominal pain, subjects (%) ([1]; 600 mg oral) | TEAE bowel sounds abnormal, subjects (%) ([1]; 600 mg oral) | TEAE dysgeusia, subjects (%) ([1]; 600 mg oral) | TEAE euphoric mood, subjects (%) ([1]; 600 mg oral) | TEAE nausea, subjects (%) ([1]; 600 mg oral) | TEAE perineal pain, subjects (%) ([1]; 600 mg oral) | TEAE pharyngolaryngeal pain, subjects (%) ([1]; 600 mg oral) | TEAE phlebitis superficial, subjects (%) ([1]; 600 mg oral) | TEAE proctalgia, subjects (%) ([1]; 600 mg oral) | TEAE CARDIAC DISORDERS, subjects (%) ([1]; 1000 mg oral) | TEAE REPRODUCTIVE SYSTEM AND BREAST DISORDERS, subjects (%) ([1]; 1000 mg oral) | TEAE RESPIRATORY THORACIC AND MEDIASTINAL DISORDERS, subjects (%) ([1]; 1000 mg oral) | TEAE dysphagia, subjects (%) ([1]; 1000 mg oral) | TEAE fatigue, subjects (%) ([1]; 1000 mg oral) | TEAE palpitations, subjects (%) ([1]; 1000 mg oral) | TEAE paraesthesia oral, subjects (%) ([1]; 1000 mg oral) | TEAE perineal pain, subjects (%) ([1]; 1000 mg oral) | TEAE throat irritation, subjects (%) ([1]; 1000 mg oral) | TEAE PSYCHIATRIC DISORDERS, subjects (%) ([1]; 1200 mg oral) | TEAE REPRODUCTIVE SYSTEM AND BREAST DISORDERS, subjects (%) ([1]; 1200 mg oral) | TEAE RESPIRATORY THORACIC AND MEDIASTINAL DISORDERS, subjects (%) ([1]; 1200 mg oral) | TEAE VASCULAR DISORDERS, subjects (%) ([1]; 1200 mg oral) | TEAE defecation urgency, subjects (%) ([1]; 1200 mg oral) | TEAE dyspnoea, subjects (%) ([1]; 1200 mg oral) | TEAE euphoric mood, subjects (%) ([1]; 1200 mg oral) | TEAE fatigue, subjects (%) ([1]; 1200 mg oral) | TEAE headache, subjects (%) ([1]; 1200 mg oral) | TEAE paraesthesia oral, subjects (%) ([1]; 1200 mg oral) | TEAE perineal pain, subjects (%) ([1]; 1200 mg oral) | TEAE vein pain, subjects (%) ([1]; 1200 mg oral)
> 90%: mean BIS scores ([1]; all time points, all treatments)
mild or moderate: severity of most TEAEs ([1]; Study 2)
16: TEAE NERVOUS SYSTEM DISORDERS, events (E) ([1]; 600 mg oral)
14: TEAE NERVOUS SYSTEM DISORDERS, events (E) ([1]; 1000 mg oral)
(80%): TEAE TOTAL, subjects (%) [1, 4] | TEAE TOTAL, subjects (%) [1, 6] | TEAE somnolence, subjects (%) [1, 7]
26: TEAE TOTAL, events (E) ([1]; 1200 mg oral)
(70%): TEAE NERVOUS SYSTEM DISORDERS, subjects (%) ([1]; 200 mg oral) | TEAE NERVOUS SYSTEM DISORDERS, subjects (%) ([1]; 600 mg oral) | TEAE NERVOUS SYSTEM DISORDERS, subjects (%) ([1]; 1000 mg oral)
no changes: laboratory values, vital signs, ECGs, physical examinations ([1]; 200-1,200 mg oral)
−11: DSST mean change from baseline ([1]; 1,000 mg)
5: TEAE GENERAL DISORDERS AND ADMINISTRATION SITE CONDITIONS, events (E) ([1]; 600 mg oral)
28: TEAE TOTAL, events (E) ([1]; 1000 mg oral)
18: TEAE TOTAL, events (E) ([1]; 200 mg oral)
80-98%: BIS score range ([1]; 200 mg)
4: TEAE GASTROINTESTINAL DISORDERS, events (E) ([1]; 600 mg oral) | TEAE VASCULAR DISORDERS, events (E) ([1]; 1000 mg oral) | TEAE phlebitis superficial, events (E) ([1]; 1000 mg oral) | TEAE feeling hot, events (E) ([1]; 1200 mg oral)
29: TEAE TOTAL, events (E) ([1]; 600 mg oral)
40%: TEAE somnolence, subjects (%) ([1]; 200 mg oral) | TEAE somnolence, subjects (%) ([1]; 1000 mg oral) | subjects with Modified OAA/S score of 4 ([1]; 1,200 mg, 1.5-h time point)
(14%): TEAE INFECTIONS AND INFESTATIONS, subjects (%) ([1]; 1200 mg oral)
60%: paresthesia, rate of occurrence ([1]; Study 2, all treatments)
−13: DSST mean change from baseline ([1]; 1,200 mg)
50%: TEAE somnolence, subjects (%) ([1]; 600 mg oral) | nausea, rate of occurrence ([1]; Study 2, all treatments) | phlebitis superficial, rate of occurrence ([1]; Study 2, all treatments)
−5: DSST mean change from baseline ([1]; 600 mg)
7: TEAE paraesthesia, events (E) ([1]; 1000 mg oral)
80%: TEAE TOTAL, subjects (%) ([1]; 200 mg oral) | TEAE TOTAL, subjects (%) ([1]; 1000 mg oral) | TEAE somnolence, subjects (%) ([1]; 1200 mg oral)
(30%): TEAE paraesthesia oral, subjects (%) ([1]; 200 mg oral) | TEAE GASTROINTESTINAL DISORDERS, subjects (%) ([1]; 600 mg oral) | TEAE feeling hot, subjects (%) ([1]; 600 mg oral) | TEAE GENERAL DISORDERS AND ADMINISTRATION SITE CONDITIONS, subjects (%) ([1]; 1000 mg oral) | TEAE VASCULAR DISORDERS, subjects (%) ([1]; 1000 mg oral) | TEAE nausea, subjects (%) ([1]; 1000 mg oral) | TEAE phlebitis superficial, subjects (%) ([1]; 1000 mg oral) | TEAE GASTROINTESTINAL DISORDERS, subjects (%) ([1]; 1200 mg oral) | TEAE GENERAL DISORDERS AND ADMINISTRATION SITE CONDITIONS, subjects (%) ([1]; 1200 mg oral) | TEAE feeling hot, subjects (%) ([1]; 1200 mg oral) | TEAE paraesthesia, subjects (%) ([1]; 1200 mg oral)
2: TEAE GASTROINTESTINAL DISORDERS, events (E) ([1]; 200 mg oral)
13: TEAE NERVOUS SYSTEM DISORDERS, events (E) ([1]; 1200 mg oral)
(50%): TEAE paraesthesia, subjects (%) ([1]; 600 mg oral) | TEAE somnolence, subjects (%) [1, 5]
(20%): TEAE paraesthesia, subjects (%) ([1]; 200 mg oral) | TEAE dizziness, subjects (%) ([1]; 600 mg oral) | TEAE fatigue, subjects (%) ([1]; 600 mg oral) | TEAE headache, subjects (%) ([1]; 600 mg oral) | TEAE feeling hot, subjects (%) ([1]; 1000 mg oral) | TEAE headache, subjects (%) ([1]; 1000 mg oral) | TEAE nausea, subjects (%) ([1]; 1200 mg oral)
10: TEAE NERVOUS SYSTEM DISORDERS, events (E) ([1]; 200 mg oral)
(60%): TEAE paraesthesia, subjects (%) ([1]; 1000 mg oral)
1: subjects with somnolence considered severe ([1]; 1000 mg oral) | subjects with somnolence considered severe ([1]; 1200 mg oral)
71-98%: BIS score range ([1]; 600 mg)
6: DSST mean change from baseline ([1]; 200 mg) | TEAE GENERAL DISORDERS AND ADMINISTRATION SITE CONDITIONS, events (E) ([1]; 1200 mg oral)
≥ 80%: subjects with Modified OAA/S score of 5 ([1]; at most time points, each treatment group)
3: TEAE paraesthesia, events (E) ([1]; 200 mg oral) | TEAE headache, events (E) ([1]; 600 mg oral) | lowest Modified OAA/S score ([1]; 1,000 mg, Subject 003, 1 and 1.5 h after treatment)

CC(C)c1cccc(C(C)C)c1O [propofol, 2,6-diisopropylphenol]
highly permeable: permeability [3]
